The values below come from US20080200376A1, “Compositions and Methods For the Treatment Of Obesity and Sexual Dysfunction” (priority 2004, published 2008).

One data set concerns ferrets. Briefly: MC4R associated emesis in ferrets, Compound A and Compound B (Table 1). The class given is in vivo, ferret. To be noted: Compound B 10 mg/kg PO; for % Emesis: ferrets; for # of Ferrets: ferrets with emesis/dosed. As for the experimental part:
(§1) Food intake (FI) was monitored at 1, 2, 4, and 24, hours after dosing. Body weight (BWT) was measured at the time of dosing and at 24 hours. Any incidence of emesis or abnormal behavior by subjects was recorded. Two studies were combined to generate the data.

Data set [1] in a line: Food intake in ad lib fed ferrets, Compound A and Compound B (FIG. 1). Type of data set: in vivo, ferret. Particulars: oral, Compound B 10 mg/kg, Compound A 60 mg/kg or the combination, 1, 2, 4 and 24 hours after dosing. As for the experimental part:
FIG. 1. […] All food intake data were analyzed by two-tailed T-TEST.
as §1

Data set [2] concerns distress vocalisations in guinea-pig pups. The data set is described as follows: Separation-induced vocalisation assay. Type of data set: in vivo. Particulars: p.o. As for the experimental part: Male and female guinea-pigs pups are housed in family groups with their mothers and littermates throughout the study. Experiments are commenced […] when the pups are 2 weeks old. Before entering an experiment, the pups are screened to ensure that a vigorous vocalisation response is reproducibly elicited following maternal separation. The pups are placed individually in an observation cage (55 cm×39 cm×19 cm) in a room physically isolated from the home cage for 15 minutes and the duration of vocalisation during this baseline period is recorded. Only animals which vocalise for longer than 5 minutes are employed for drug challenge studies (approximately 50% of available pups may fail to reach this criterion). On test days each pup receives an oral dose or an s.c. or i.p. injection of test compound or vehicle and is then immediately returned to the home cage with its mother and siblings for 30 to 60 minutes (or for up to 4 hours following an oral dose, dependent upon the oral pharmacokinetics of the test compound) before social isolation for 15 minutes as described above. The duration of vocalisation on drug treatment days is expressed as a percentage of the pre-treatment baseline value for each animal. The same subjects are retested once weekly for up to 6 weeks. Between 6 and 8 animals receive each test compound at each dose tested.

For data set [3], the system named is foot tapping in gerbils induced by central injection of an NK-1 agonist. The data set is described as follows: Gerbil foot-tapping assay. Type of data set: in vivo. To be noted: i.v. The text has this: CNS-penetrant NK-1 receptor antagonists for use in the present invention can be identified by their ability to inhibit foot tapping in gerbils induced by anxiogenic agents (such as pentagastrin) or central infusion of NK-1 receptor agonists such as GR73632, or caused by aversive stimulation such as foot shock or single housing, based on the method of Rupniak & Williams, Eur. J. Pharmacol., 1994, 265, 179.
Male or female Mongolian gerbils (35-90 g) are anaesthetised by inhalation of an isoflurane/oxygen mixture to permit exposure of the jugular vein in order to permit administration of test compounds or vehicle in an injection volume of 5 ml/kg i.v. Alternatively, test compounds may be administered orally or by subcutaneous or intraperitoneal routes. A skin incision is then made in the midline of the scalp to expose the skull. […] The duration and/or intensity of hind foot tapping is then recorded continuously for approximately 5 minutes. Alternatively, the ability of test compounds to inhibit foot tapping evoked by aversive stimulation, such as foot shock or single housing, may be studied using a similar method of quantification.

Data set [4] relates to cisplatin-induced emesis in ferrets. The data set is described as follows: Ferret emesis assay. Particulars: p.o. Type of data set: in vivo. As for the experimental part: Individually housed male ferrets (1.0-2.5 kg) are dosed orally by gavage with test compound. Ten minutes later they are fed with approximately 100 g of tinned cat food. At 60 minutes following oral dosing, cisplatin (10 mg/kg) is given i.v. via a jugular vein catheter inserted under a brief period of halothane anaesthesia. The catheter is then removed, the jugular vein ligated and the skin incision closed. The ferrets recover rapidly from the anaesthetic and are mobile within 10-20 minutes. The animals are observed continuously during recovery from the anaesthetic and for 4 hours following the cisplatin injection, after which time the animals are killed humanely. The numbers of retches and vomits occurring during the 4 hours after cisplatin administration are recorded by trained observers.

As for `C[C@@H](O[C@H]1OCCN(Cc2nn[nH]c2CN(C)C)[C@H]1c1ccc(F)cc1)c1cc(C(F)(F)F)cc(C(F)(F)F)c1` [Compound B, 2-(R)-(1-(R)-(3,5-bis(trifluoromethyl)phenyl)ethoxy)-4-(5-(dimethylamino)methyl-1,2,3-triazol-4-yl)methyl-3-(S)-(4-fluorophenyl)morpholine], the “% Emesis” value in the data set with ferrets (1 hour), with ferrets (2 hours), in the data set with ferrets (4 hours) and in the data set on ferrets (Total) was 0% each time. In addition, the “# of Ferrets” value in the data set on ferrets (1 hour), in the data set with ferrets (2 hours), in the data set on ferrets (4 hours) and in the data set on ferrets (Total) was 0/9 each time. In data set [1], the Food intake result is “significantly reduced in the NK1 dose group at 24 hours only”.
Consider `C[C@@H](O[C@H]1OCCN(Cc2nc(=O)[nH][nH]2)[C@H]1c1ccc(F)cc1)c1cc(C(F)(F)F)cc(C(F)(F)F)c1` [2-(R)-(1-(R)-(3,5-bis(trifluoromethyl)phenyl)ethoxy)-3-(S)-(4-fluorophenyl)-4-(3-(5-oxo-1H,4H-1,2,4-triazolo)methyl)morpholine], for which the “guinea-pig vocalisation (4 hr. pre-treatment) ID50” value in data set [2] stood at 0.73 mg/kg. The “gerbil foot-tapping (5 mins.) ID50” value in data set [3] (5 mins.) turned out to be 0.36 mg/kg. The “gerbil foot-tapping (24 hrs.) ID50” value in data set [3] (24 hrs.) came to 0.33 mg/kg. Besides, in data set [4], the “ferret emesis ID90” value is less than 3 mg/kg.
